Results as given in a melting point compilation (Tetko et al.).

Row | Compound | melting point
1 | Cc1ccc(C=C2C(=O)NN=C2c2c(O)c3ccccc3n(C)c2=O)cc1 | 280 °C
2 | O=C1c2ccccc2C(=O)N1CCNCCN1C(=O)c2ccccc2C1=O | 132 °C
3 | COC(=O)c1cc(C)c(S(=O)(=O)Cl)s1 | 40 to 41 °C
4 | C=C(C)CCCCCCCCC | -40 °C
5 | OCC(CO)(CCl)CCl | 83 °C
6 | O=C(O)CCc1cccc(Cl)c1 | 72 to 74 °C
7 | O=S1(=O)CC(O)C(Br)C1 (stereo unspecified) | 190 to 192 °C
8 | Ic1ccc2[nH]ccc2c1 | 99 °C
9 | CC12CCC(=O)N1C(c1ccccc1)CO2 (stereo unspecified) | 125 °C
10 | Nc1ccc(F)nc1 | 91 °C
11 | CCCCSC(=Nc1cccnc1)SCc1ccc(C(C)(C)C)cc1 | 32 °C
12 | O=C(O)C1c2ccccc2C(=O)N(Cc2ccc(F)cc2)C1c1cccnc1 (stereo unspecified) | 250 °C
13 | O[C@@H](c1ccccc1)[C@@H](O)c1ccccc1 | 149 °C
14 | CCOP(=S)(OCC)ON=C(C#N)c1ccccc1 | 6.1 °C
15 | N#CCc1ccc(OS(=O)(=O)c2ccc(Cl)cc2)cc1 | 95 to 97 °C
16 | CC(=O)Oc1cn(C(C)=O)c2ccc(Br)cc12 | 124 to 128 °C
17 | COC(=O)c1ccccc1S(N)(=O)=O | 125 to 127 °C
18 | CCSC1=NN=C(SCC)NN1 | 123 to 125 °C
19 | CC(C)(O)CC(C)(O)c1ccc(Cl)cc1 (stereo unspecified) | 76.5 °C
20 | O=C(O)C(F)(F)C(F)(F)C(F)(F)C(=O)O | 94.5 °C
21 | CC1(C)C2CCC1(C)C(NC(=O)c1ccc([N+](=O)[O-])cc1)C2NC(=O)c1ccc([N+](=O)[O-])cc1 (stereo unspecified) | 170 °C
22 | Cc1cc(C(C)(C)C)cc(C)c1CC1=NCCN1 | 131 °C

Row | Compound | melting point
23 | COc1ccc(C(=O)c2ccc(Cl)cc2Cl)cc1OC | 128 °C
24 | O=C1C=CC(=O)N1c1cccnc1Cl | 115 to 117 °C
25 | O=C(Oc1c(F)c(F)c(F)c(F)c1F)c1ccc(OC2CCOCC2)cc1 | 111 to 114 °C
26 | CC1CC(=O)c2cc(F)ccc2O1 (stereo unspecified) | 71 °C
27 | CC1(CC(=O)O)OCCc2sccc21 (stereo unspecified) | 92.5 to 93.5 °C
28 | O=C(Nc1ccc(-c2ccc(NC(=O)c3ccccc3)cc2NC(=O)c2ccccc2)c(NC(=O)c2ccccc2)c1)c1ccccc1 | 279 °C
29 | CC(CBr)c1ccccc1 (stereo unspecified) | -59.3 °C
30 | Cc1cc(N)n(C)n1 | 75 °C
31 | CNCC(O)c1ccc(O)cc1 (stereo unspecified) | 184 °C
32 | O=C(O)Cc1ccc(CBr)cc1 | 179 °C
33 | CC(C)(C)NCCO | 44 °C
34 | Nc1ccc(Cl)c(C(=O)O)c1 | 188 °C
35 | CC1(NC(=O)c2ccccc2)COCOC1=O (racemic) | 154 to 159 °C
36 | CN(c1c(F)c(F)c(-c2c(F)c(F)c(F)c(F)c2F)c(F)c1F)N(O)O | 140 °C
37 | O=c1[nH]nc2ccccn12 | 234 °C
38 | COCCOc1ccccc1S(=O)(=O)NC(=O)Nc1nc(OC)nc(OC)n1 | 130 °C
39 | O=[N+]([O-])c1ccc(NN=CC2=C(C#Cc3ccccc3)CCCC2)c([N+](=O)[O-])c1 | 198 to 199 °C
40 | c1cc2c3c(ccc4c3c1CCC4)CCC2 | 133 °C
41 | CCCCOCOCCCC | -58.1 °C
42 | N#Cc1ccncc1C#N | 80 °C
43 | Clc1cccc2ncccc12 | 45 °C
44 | ClC1(c2ccccc2)Cc2ccccc21 (stereo unspecified) | 60 °C

Row | Compound | melting point
45 | Cc1ccc(S(=O)(=O)N[C@@H](c2ccccc2)[C@@H](N)c2ccccc2)cc1 | 127 to 130 °C
46 | Cn1c(=O)c(C2=NNC(=O)C2=Cc2ccc3c(c2)OCO3)c(O)c2ccccc21 | 265 °C
47 | O=C(O)c1coc2ccccc2c1=O | 201 °C
48 | COC(=O)c1ccc2nccnc2c1 | 99 to 100 °C
49 | COc1cc(O)ccc1Br | 79 °C
50 | N[C@H]1CC[C@@H](C(=O)O)CC1 | 300 °C
51 | O=C1C(c2cccc(C3=[N+]([O-])c4cc([N+](=O)[O-])ccc4C3=O)c2)=[N+]([O-])c2cc([N+](=O)[O-])ccc21 | 287 °C
52 | O=Cc1cc(I)cc(I)c1O | 108 °C
53 | COC(=O)c1scc(Br)c1OC | 73 to 74 °C
54 | NCCCCCCC(=O)O | 195 °C
55 | O=[N+]([O-])c1ccc(Oc2ccc(C(F)(F)F)cc2Cl)cc1 | 68 °C
56 | COc1ccc(NC(=S)NNC(=O)c2nn(-c3ccccc3)nc2C)cc1 | 206 to 207 °C
57 | O=[N+]([O-])c1ccc(-c2ccc([N+](=O)[O-])cc2Cl)cc1 | 144 to 146 °C
58 | Nc1cc(CCNC(=O)c2ccccc2)ccc1CCNC(=O)c1ccccc1 | 210 °C
59 | CCOC(=O)c1cc(I)c(N)c(I)c1 | 145 to 146 °C
60 | O=C(O)CCC(=O)c1cccs1 | 121 to 122 °C
61 | CCCSC | -113 °C
62 | O=Cc1cccc2c([N+](=O)[O-])cccc12 | 136 °C
63 | Cc1onc(-c2c(Cl)cccc2Cl)c1C(=O)O | 223 °C
64 | CCOC(=O)c1[nH]c(C)c(CC)c1C | 87 to 88 °C
65 | CCS(=O)(=O)c1ccccc1 | 42 °C
66 | CCOC(=O)CN=C(c1ccccc1)c1ccccc1 | 53 °C

Row | Compound | melting point
67 | CC(=O)CC(=O)C(=O)O | 99.5 °C
68 | NCC(F)C(=O)O (racemic) | 222 to 223 °C
69 | CC1=Nc2ccccc2C1(C)C#N (stereo unspecified) | 73 °C
70 | CCc1c(C)[nH]c2ccc(N(C)C)cc12 | 100 °C
71 | O=C(CCC(=O)Oc1ccccc1)Oc1ccccc1 | 121 °C
72 | c1cc2c3c(cccc3c1)-c1nccnc1-2 | 146 °C
73 | Cc1ccc(-c2ccc(S(=O)(=O)Cl)cc2)cc1 | 107 to 108 °C
74 | O=C(O)c1cc(S(=O)(=O)Cl)ccc1O | 168 to 170 °C
75 | N#CC#N | -27.9 °C
76 | CC(=O)Nc1ccc(C#N)c(C)c1 | 163 °C
77 | CC(=NO)c1ccc(Cl)cc1Cl | 148 to 151 °C
78 | O=C=Nc1ccc(-c2ncccn2)cc1 | 85.5 to 87.5 °C
79 | C=CCNc1nc(N)c(C(N)=O)s1 | 158 to 160 °C
80 | CNc1ccc(OC)cc1 | 33 to 36 °C
81 | CC(C)(C)C(O)C(=Cc1ccc(Cl)cc1)n1cncn1 (stereo unspecified) | 153 °C
82 | CN(C)c1ccc(C(c2ccc(N(C)C)cc2)c2ccc(N(C)C)cc2)cc1 | 180 °C
83 | C1CCC(CCCCC2CCCCC2)CC1 | 12 °C
84 | CC1CC(C)CC(O)C1 (stereo unspecified) | 11.6 °C
85 | CCCCCCCCCCCCC(=O)OC | 6.5 °C
86 | N#Cc1sccc1Br | 49 °C
87 | COc1ccccc1-c1ccc(C=C(C(C)=O)C(C)=O)o1 | 145 to 146 °C
88 | CC(C(=O)O)C(C)C(=O)O (stereo unspecified) | 120 °C

Row | Compound | melting point
89 | Cc1c(C)c(C)c2c(c1C)CC2(C)O (stereo unspecified) | 90 °C
90 | OC1OC2COC(c3ccccc3)OC2C(O)C1O (stereo unspecified) | 173 to 174 °C
91 | CCCCCCCCCCCCCCCCCCCc1ccccc1 | 40 °C
92 | Brc1cc(Br)c(Oc2c(Br)cc(Br)c(Br)c2Br)c(Br)c1Br | 206 °C
93 | C1=CC2=CC=C(O2)C2=CC=C(C=CC3=CC=C(O3)C3=CC=C1O3)O2 | 270 to 271 °C
94 | CCc1ccccc1NCN1C(=O)c2ccccc2C1=O | 104 °C
95 | FC(F)(F)c1cc(Cl)c2cc(Br)ccc2n1 | 98 to 100 °C
96 | O=Cc1cccc2cccc([N+](=O)[O-])c12 | 125 °C
97 | CCOC=Nc1c(C#N)cnn1-c1ncnc2c1cnn2C | 155 °C
98 | CC(=O)NCCCCCCNC(C)=O | 128 to 129 °C
99 | C=CCC1(C2C=CCC2)C(=O)NC(=O)NC1=O (stereo unspecified) | 140 °C
100 | CCCCCCCCOC1OC(CO)C(O)C(O)C1O (stereo unspecified) | 105 °C
101 | O=C(O)c1cc(O)c(O)c(O)c1 | 253 °C
102 | Nc1nn2c(C(F)(F)F)cc(=O)[nH]c2c1/N=N/c1cccc(C(F)(F)F)c1 | 291 °C
103 | O=C1Cc2cc(O)ccc2O1 | 190 to 195 °C
104 | O=C(Cc1ccccc1)C(=O)C(Br)c1ccccc1 (stereo unspecified) | 73 °C
105 | Cc1ccc(O)c(C(=O)c2ccccc2)c1 | 83 to 85 °C
106 | Cc1cc(C)c(N)c(Br)c1 | 44 °C
107 | CCC1C(=CC(=O)CI)N(C)C(C)(C)N1O (stereo unspecified) | 126 to 127 °C
108 | O=Cc1c[nH]nc1-c1ccccc1 | 146 to 148 °C
109 | Nc1cc(-c2ccc(F)cc2)nc(N)n1 | 164 to 166 °C
110 | CCCc1c(C(=O)O)cnn1-c1ccc(Cl)cc1 | 116 to 119 °C

Row | Compound | melting point
111 | CC(O)C1(O)CC2C3CCC4(C)CC(O)CCC4(C)C3CCC2(C)C1 (stereo unspecified) | 220 to 221 °C
112 | O=[N+]([O-])C=Cc1ccccc1Cl | 48 °C
113 | COC(=O)c1ccc(CCl)o1 | 32 to 36 °C
114 | COc1ccc(C(=O)CCCCl)c(OC)c1 | 58 to 60 °C
115 | c1cc2c(nn1)CCc1nonc1-2 | 108 to 110 °C
116 | CC(C)CCOC(=O)C(=O)OCCC(C)C | -9 °C
117 | COc1ccc(C=CC(=O)c2ccc(O)cc2)cc1 | 188 °C
118 | COc1ccc(/C=C/C=O)cc1 | 55 to 60 °C
119 | O=C1Nc2c(Cl)ccc(Cl)c2C1=O | 251 to 254 °C
120 | Cc1ccc(C)c([N+](=O)[O-])c1 | -25 °C
121 | CC12CCC3C(CCC(CC(=O)O)C3(C)CC(=O)O)C1CCC2=O (stereo unspecified) | 223 to 224 °C
122 | O=C(O)CSCC(=O)O | 129 °C
123 | BrCc1c(CBr)c(CBr)c(CBr)c(CBr)c1CBr | 292 °C
124 | Cc1oc(C(C)(C)C)cc1C(=O)O | 92 °C
125 | CCC/C=C/CCCCCC | -63.7 °C
126 | CC(=O)NC(N)=S | 165 °C
127 | N=C1c2ccccc2C(=O)N1c1n[nH]c2ncccc12 | 252 to 255 °C
128 | O=C1C2=C(O)CCCC2Cc2ccccc21 (stereo unspecified) | 79 °C
129 | O=[N+]([O-])c1cc(N(CCO)CCO)ccc1NCCO | 95.5 °C
130 | O=C(c1ccc(Cl)cc1)c1cc2c(cc1Br)OCCO2 | 129 to 130 °C
131 | Cc1cc(C(F)(F)F)c2c(N)c(C#N)sc2n1 | 182 to 184 °C
